# Laboratory results from article PMC12420824, “Discovery of a selective alpha-kinase 1 inhibitor for the rare genetic disease ROSAH syndrome” (Nature Communications, 2025).
# Key:
# Test in all cases: HotSpot kinase assay
# Conditions in all cases: read-out: % Enzyme Activity (relative to DMSO control), 10 uM
# [1] = biological target: NLK (Homo sapiens, UniProt Q9UBE8)
# From the text: (§1) Additionally, a 10-dose dilution series of staurosporine and other enzyme-appropriate compounds were included as positive control inhibitors.
# [2] = biological target: PDGFRa (Homo sapiens, UniProt P16234)
# From the text: as §1
# [3] = biological target: ERK2/MAPK1 (Homo sapiens, UniProt P28482)
# [4] = biological target: LYN B (Homo sapiens, UniProt P07948)
# [5] = biological target: HPK1/MAP4K1 (Homo sapiens, UniProt Q92918)
# Chain of HPK1/MAP4K1 (Q92918 whole entry): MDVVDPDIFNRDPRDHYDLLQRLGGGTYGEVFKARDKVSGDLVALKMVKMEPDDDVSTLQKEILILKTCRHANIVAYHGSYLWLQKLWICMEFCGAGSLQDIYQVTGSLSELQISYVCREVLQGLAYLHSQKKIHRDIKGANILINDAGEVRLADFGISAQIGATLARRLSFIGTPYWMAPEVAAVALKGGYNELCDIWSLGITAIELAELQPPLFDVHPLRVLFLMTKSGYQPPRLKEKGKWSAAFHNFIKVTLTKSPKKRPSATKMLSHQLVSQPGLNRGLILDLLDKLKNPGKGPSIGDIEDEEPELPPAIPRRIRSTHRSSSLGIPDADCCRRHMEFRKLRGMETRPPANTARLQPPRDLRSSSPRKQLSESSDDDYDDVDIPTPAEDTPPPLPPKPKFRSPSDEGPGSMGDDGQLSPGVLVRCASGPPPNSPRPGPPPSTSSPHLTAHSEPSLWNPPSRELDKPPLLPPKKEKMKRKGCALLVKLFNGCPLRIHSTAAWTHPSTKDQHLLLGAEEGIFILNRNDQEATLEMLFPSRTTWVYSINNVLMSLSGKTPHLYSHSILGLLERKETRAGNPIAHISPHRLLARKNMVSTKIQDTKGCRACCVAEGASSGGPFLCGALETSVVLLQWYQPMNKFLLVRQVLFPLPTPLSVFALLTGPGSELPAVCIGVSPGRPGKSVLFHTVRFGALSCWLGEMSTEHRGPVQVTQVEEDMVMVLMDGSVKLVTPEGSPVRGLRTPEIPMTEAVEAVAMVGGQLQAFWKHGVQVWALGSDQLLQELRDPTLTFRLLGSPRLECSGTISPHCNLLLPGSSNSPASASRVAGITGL
# From the text: as §1
# [6] = biological target: EPHA2 (Homo sapiens, UniProt P29317)
# [7] = biological target: ULK3 (Homo sapiens, UniProt Q6PHR2)
# [8] = biological target: AMPK(A2/B1/G1) (Homo sapiens, UniProt P54646)
# From the text: as §1
# [9] = biological target: DYRK2 (Homo sapiens, UniProt Q92630)
# Chain of DYRK2 (Q92630 whole entry): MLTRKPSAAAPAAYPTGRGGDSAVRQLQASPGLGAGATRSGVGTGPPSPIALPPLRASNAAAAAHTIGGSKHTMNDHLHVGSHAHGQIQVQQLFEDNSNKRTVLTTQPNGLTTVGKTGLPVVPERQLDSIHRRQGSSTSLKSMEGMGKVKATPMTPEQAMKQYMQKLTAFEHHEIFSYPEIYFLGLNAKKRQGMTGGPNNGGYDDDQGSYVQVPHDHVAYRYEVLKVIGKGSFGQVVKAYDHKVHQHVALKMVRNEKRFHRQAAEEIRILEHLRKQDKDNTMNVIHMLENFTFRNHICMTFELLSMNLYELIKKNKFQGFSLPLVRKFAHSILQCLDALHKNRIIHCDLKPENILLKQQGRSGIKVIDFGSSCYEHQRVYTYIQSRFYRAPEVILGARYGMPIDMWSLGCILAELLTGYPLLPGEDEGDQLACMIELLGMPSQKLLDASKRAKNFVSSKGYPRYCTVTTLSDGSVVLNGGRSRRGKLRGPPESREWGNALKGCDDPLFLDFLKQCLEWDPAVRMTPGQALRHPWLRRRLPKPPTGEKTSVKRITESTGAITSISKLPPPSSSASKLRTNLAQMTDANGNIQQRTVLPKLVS
# From the text: as §1
# [10] = biological target: CK1epsilon (Homo sapiens, UniProt P49674)
# From the text: as §1
# [11] = biological target: CAMK4 (Homo sapiens, UniProt Q16566)
# From the text: as §1
# [12] = biological target: SYK (Homo sapiens, UniProt P43405)
# From the text: as §1
# [13] = biological target: NEK4 (Homo sapiens, UniProt P51957)
# [14] = biological target: FLT4/VEGFR3 (Homo sapiens, UniProt P35916)
# [15] = biological target: CK2a2 (Homo sapiens, UniProt P19784)
# From the text: as §1
# [16] = biological target: EPHA3 (Homo sapiens, UniProt P29320)
# Chain of EPHA3 (P29320 21-983): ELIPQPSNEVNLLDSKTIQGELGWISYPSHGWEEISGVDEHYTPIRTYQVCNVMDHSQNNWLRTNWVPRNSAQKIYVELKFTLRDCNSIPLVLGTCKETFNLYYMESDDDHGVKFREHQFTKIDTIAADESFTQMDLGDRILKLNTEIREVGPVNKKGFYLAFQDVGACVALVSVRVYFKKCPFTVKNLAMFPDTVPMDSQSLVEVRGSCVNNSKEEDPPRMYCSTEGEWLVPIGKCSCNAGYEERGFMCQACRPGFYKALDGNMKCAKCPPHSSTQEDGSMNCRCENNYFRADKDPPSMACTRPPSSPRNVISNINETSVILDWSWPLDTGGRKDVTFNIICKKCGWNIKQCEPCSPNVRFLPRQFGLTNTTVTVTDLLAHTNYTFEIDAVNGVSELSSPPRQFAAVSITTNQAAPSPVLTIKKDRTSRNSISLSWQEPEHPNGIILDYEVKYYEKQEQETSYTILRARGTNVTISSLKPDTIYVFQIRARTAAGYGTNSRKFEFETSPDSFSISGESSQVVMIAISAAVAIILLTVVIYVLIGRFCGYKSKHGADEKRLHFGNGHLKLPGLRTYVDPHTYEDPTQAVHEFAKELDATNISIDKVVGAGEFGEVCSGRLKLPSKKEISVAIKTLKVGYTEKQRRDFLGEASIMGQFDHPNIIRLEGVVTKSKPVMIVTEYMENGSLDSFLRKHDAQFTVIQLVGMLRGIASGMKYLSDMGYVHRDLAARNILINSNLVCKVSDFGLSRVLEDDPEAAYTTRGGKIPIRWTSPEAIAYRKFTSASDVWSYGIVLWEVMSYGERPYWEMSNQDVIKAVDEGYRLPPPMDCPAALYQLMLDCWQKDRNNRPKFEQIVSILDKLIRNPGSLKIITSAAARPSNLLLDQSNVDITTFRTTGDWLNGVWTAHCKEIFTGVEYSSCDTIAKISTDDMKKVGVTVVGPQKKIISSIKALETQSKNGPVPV
# From the text: as §1
# [17] = biological target: PKN2/PRK2 (Homo sapiens, UniProt Q16513)
# From the text: as §1
# [18] = biological target: TSSK2 (Homo sapiens, UniProt Q96PF2)
# From the text: as §1
# [19] = biological target: LCK2/ICK (Homo sapiens, UniProt Q9UPZ9)
# From the text: as §1
# [20] = biological target: EIF2AK3 (Homo sapiens, UniProt Q9NZJ5)
# Chain of EIF2AK3 (Q9NZJ5 30-1116): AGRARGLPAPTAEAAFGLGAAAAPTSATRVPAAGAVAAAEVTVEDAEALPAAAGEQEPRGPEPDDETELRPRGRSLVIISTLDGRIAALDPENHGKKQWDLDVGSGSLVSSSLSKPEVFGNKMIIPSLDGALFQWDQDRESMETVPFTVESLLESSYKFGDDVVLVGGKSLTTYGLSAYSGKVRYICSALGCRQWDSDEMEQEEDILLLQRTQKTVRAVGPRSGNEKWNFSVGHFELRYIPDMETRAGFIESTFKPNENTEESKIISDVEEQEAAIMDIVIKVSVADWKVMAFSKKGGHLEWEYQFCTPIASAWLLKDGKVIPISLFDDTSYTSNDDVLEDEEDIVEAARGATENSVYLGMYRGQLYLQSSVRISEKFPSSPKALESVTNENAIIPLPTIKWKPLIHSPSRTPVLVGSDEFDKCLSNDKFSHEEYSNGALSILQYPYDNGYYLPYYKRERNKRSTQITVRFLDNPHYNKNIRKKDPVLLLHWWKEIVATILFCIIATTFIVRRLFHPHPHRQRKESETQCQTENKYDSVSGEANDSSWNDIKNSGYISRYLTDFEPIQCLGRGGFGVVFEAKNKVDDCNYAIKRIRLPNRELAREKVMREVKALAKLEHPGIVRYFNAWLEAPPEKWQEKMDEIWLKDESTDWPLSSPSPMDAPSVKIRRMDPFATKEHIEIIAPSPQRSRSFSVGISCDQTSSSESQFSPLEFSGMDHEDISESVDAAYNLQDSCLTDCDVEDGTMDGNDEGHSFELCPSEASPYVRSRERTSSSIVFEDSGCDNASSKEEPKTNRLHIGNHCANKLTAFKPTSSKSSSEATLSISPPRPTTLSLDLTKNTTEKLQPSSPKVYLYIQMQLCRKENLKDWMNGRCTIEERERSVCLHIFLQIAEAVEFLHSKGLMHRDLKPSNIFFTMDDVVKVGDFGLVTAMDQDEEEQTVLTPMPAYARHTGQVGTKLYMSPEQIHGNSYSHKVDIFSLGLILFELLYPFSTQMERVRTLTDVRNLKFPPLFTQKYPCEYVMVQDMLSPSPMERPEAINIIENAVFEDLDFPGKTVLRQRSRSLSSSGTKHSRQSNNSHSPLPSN
# From the text: as §1
# [21] = biological target: EPHA1 (Homo sapiens, UniProt P21709)
# [22] = biological target: TSSK3/STK22C (Homo sapiens, UniProt Q96PN8)
# From the text: as §1
# [23] = biological target: AURORA C (Homo sapiens, UniProt Q9UQB9)
# [24] = biological target: WNK2 (Homo sapiens, UniProt Q9Y3S1)
# [25] = biological target: MARK3 (Homo sapiens, UniProt P27448)
# From the text: as §1
# [26] = biological target: GRK1 (Homo sapiens, UniProt Q15835)
# Chain of GRK1 (Q15835 whole entry): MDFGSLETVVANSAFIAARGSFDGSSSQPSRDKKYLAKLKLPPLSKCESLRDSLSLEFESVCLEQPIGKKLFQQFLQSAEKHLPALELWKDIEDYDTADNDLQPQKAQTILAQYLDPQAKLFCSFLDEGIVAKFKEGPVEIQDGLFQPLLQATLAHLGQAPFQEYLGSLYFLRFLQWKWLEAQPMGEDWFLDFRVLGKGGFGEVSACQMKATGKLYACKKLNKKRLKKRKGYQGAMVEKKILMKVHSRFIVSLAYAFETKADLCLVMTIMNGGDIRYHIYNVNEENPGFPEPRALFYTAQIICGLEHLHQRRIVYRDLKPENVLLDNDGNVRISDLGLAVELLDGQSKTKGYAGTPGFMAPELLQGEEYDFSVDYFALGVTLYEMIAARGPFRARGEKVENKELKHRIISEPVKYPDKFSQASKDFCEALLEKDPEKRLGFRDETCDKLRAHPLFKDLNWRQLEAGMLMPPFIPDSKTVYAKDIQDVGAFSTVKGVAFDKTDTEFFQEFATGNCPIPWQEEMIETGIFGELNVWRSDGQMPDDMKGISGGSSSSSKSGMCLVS
# From the text: as §1
# [27] = biological target: PKD2/PRKD2 (Homo sapiens, UniProt Q9BZL6)
# From the text: as §1
# [28] = biological target: HIPK1 (Homo sapiens, UniProt Q86Z02)
# From the text: as §1
# [29] = biological target: Aurora B (Homo sapiens, UniProt Q96GD4)
# From the text: as §1
# [30] = biological target: JNK3 (Homo sapiens, UniProt P53779)
# From the text: as §1
# [31] = biological target: MLK2/MAP3K10 (Homo sapiens, UniProt Q02779)
# From the text: as §1
# [32] = biological target: CAMK2a (Homo sapiens, UniProt Q9UQM7)
# Chain of CAMK2a (Q9UQM7 whole entry): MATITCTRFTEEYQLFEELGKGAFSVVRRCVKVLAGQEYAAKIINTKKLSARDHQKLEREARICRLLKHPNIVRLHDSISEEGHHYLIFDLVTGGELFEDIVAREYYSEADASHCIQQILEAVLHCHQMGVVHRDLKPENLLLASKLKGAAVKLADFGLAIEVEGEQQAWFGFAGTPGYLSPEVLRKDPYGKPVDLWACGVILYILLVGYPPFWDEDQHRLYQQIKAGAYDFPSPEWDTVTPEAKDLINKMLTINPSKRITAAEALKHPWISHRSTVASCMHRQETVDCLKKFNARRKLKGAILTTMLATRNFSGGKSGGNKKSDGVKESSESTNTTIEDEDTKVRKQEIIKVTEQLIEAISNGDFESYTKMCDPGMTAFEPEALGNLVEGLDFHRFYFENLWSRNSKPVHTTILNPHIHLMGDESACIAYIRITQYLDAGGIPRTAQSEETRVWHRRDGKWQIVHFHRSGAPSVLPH
# [33] = biological target: CLK4 (Homo sapiens, UniProt Q9HAZ1)
# From the text: as §1
# [34] = biological target: RSK2 (Homo sapiens, UniProt P51812)
# From the text: as §1
# [35] = biological target: LYN (Homo sapiens, UniProt P07948)
# From the text: as §1
# [36] = biological target: PKCnu/PRKD3 (Homo sapiens, UniProt O94806)
# From the text: as §1
# [37] = biological target: CTK/MATK (Homo sapiens, UniProt P42679)
# From the text: as §1
# [38] = biological target: ITK (Homo sapiens, UniProt Q08881)
# From the text: as §1
# [39] = biological target: JNK2 (Homo sapiens, UniProt P45984)
# From the text: as §1
# [40] = biological target: ABL1 (Homo sapiens, UniProt P00519)
# From the text: as §1
# Chain of NLK (Q9UBE8 whole entry): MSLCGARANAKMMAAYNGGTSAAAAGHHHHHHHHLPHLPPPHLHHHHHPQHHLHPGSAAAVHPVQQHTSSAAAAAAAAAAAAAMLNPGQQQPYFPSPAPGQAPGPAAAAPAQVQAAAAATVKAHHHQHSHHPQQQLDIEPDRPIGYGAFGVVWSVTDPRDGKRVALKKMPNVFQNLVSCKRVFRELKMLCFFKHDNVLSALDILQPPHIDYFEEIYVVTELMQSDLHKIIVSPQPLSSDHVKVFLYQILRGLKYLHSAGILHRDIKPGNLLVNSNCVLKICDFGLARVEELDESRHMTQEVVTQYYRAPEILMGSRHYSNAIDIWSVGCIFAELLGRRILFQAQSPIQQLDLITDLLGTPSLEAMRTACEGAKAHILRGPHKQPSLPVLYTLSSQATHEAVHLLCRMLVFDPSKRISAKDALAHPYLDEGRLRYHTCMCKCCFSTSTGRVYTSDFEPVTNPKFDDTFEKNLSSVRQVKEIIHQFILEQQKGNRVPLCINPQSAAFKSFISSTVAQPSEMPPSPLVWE
smiles,measurement,setting,value
C#C[C@@](C)(c1ccc(Cl)cc1)c1csc(NC(=O)c2c(F)cc(N3CCNCC3)cc2F)n1 (stereo in doubt) [DF-003],remaining activity at 10 µM,[1],99.5%
same,remaining activity at 10 µM,[2],87.6%
same,remaining activity at 10 µM,[3],91.9%
same,remaining activity at 10 µM,[4],143%
same,remaining activity at 10 µM,[5],83.3%
same,remaining activity at 10 µM,[6],114%
same,remaining activity at 10 µM,[7],114%
same,remaining activity at 10 µM,[8],83.4%
same,remaining activity at 10 µM,[9],83.6%
same,remaining activity at 10 µM,[10],76.9%
same,remaining activity at 10 µM,[11],34.5%
same,remaining activity at 10 µM,[12],78.8%
same,remaining activity at 10 µM,[13],75.9%
same,remaining activity at 10 µM,[14],98.2%
same,remaining activity at 10 µM,[15],128%
same,remaining activity at 10 µM,[16],117%
same,remaining activity at 10 µM,[17],61.3%
same,remaining activity at 10 µM,[18],101%
same,remaining activity at 10 µM,[19],86.9%
same,remaining activity at 10 µM,[20],81.9%
same,remaining activity at 10 µM,[21],119%
same,remaining activity at 10 µM,[22],53.7%
same,remaining activity at 10 µM,[23],91.7%
same,remaining activity at 10 µM,[24],104%
same,remaining activity at 10 µM,[25],102%
same,remaining activity at 10 µM,[26],99.3%
same,remaining activity at 10 µM,[27],85.9%
same,remaining activity at 10 µM,[28],104%
same,remaining activity at 10 µM,[29],76.5%
same,remaining activity at 10 µM,[30],92.2%
same,remaining activity at 10 µM,[31],67.5%
same,remaining activity at 10 µM,[32],9.74%
same,remaining activity at 10 µM,[33],128%
same,remaining activity at 10 µM,[34],104%
same,remaining activity at 10 µM,[35],137%
same,remaining activity at 10 µM,[36],53.2%
same,remaining activity at 10 µM,[37],80.2%
same,remaining activity at 10 µM,[38],71.2%
same,remaining activity at 10 µM,[39],107%
same,remaining activity at 10 µM,[40],87.7%
